Values of other authors in EP1870093A1, “Pharmaceutical combination comprising adenosine A1 receptor antagonists and radiocontrast media” (Solvay Pharmaceuticals GmbH, priority 2006, dated 2007).

Tested on: radiocontrast media induced nephropathy
Settings: Shammas 2001; Welch 2002; Huber 2002

SMILES | protection against radiocontrast media induced nephropathy
Cn1c(=O)c2[nH]cnc2n(C)c1=O [Aminophylline, aminophylline] | does not appear to add a protective role
Cn1c(=O)c2[nH]cnc2n(C)c1=O [theophylline] | effective in preventing radiocontrast media induced nephropathy
